According to ChEMBL document CHEMBL5634184, “Direct Inhibition of BK Channels by Cannabidiol, One of the Principal Therapeutic Cannabinoids Derived from Cannabis sativa” (J Nat Prod, 2024):
Active and inactive are the calls of the source. No cut-off for these calls is given here.

What was measured:
[1] = target: T1, Calcium-activated potassium channel subunit alpha-1 (Homo sapiens, UniProt Q12791); assay: Inhibition of human KCNMA1 expressed in HEK293 cells assessed as reduction in voltage activation kinetics at 1 uM by whole cell configuration based patch clamp method
[2] = target: T1, Calcium-activated potassium channel subunit alpha-1; assay: Inhibition of human KCNMA1 expressed in HEK293 cells assessed as shift in activation curve to depolarized voltage (deltaV1/2) at 0.3 to 10 uM by inside-out configuration based patch clamp method; assay type: cell-based; conditions: dose 0.3-10 µM
[3] = target: T1, Calcium-activated potassium channel subunit alpha-1; assay: Inhibition of human KCNMA1 expressed in HEK293 cells assessed as reduction in 100+ mV pulse elicited current by inside-out configuration based patch clamp method; assay type: cell-based
[4] = target: T1, Calcium-activated potassium channel subunit alpha-1; assay: Inhibition of human KCNMA1 expressed in HEK293 cells assessed as reduction in amplitude current at 10 uM by inside-out configuration based patch clamp method relative to control; assay type: cell-based
[5] = target: T1, Calcium-activated potassium channel subunit alpha-1; assay: Inhibition of human KCNMA1 expressed in HEK293 cells assessed as increase in mean closed times at 3 uM at -40 mV (reference value: 33=/-12 ms); assay type: cell-based
[6] = target: T1, Calcium-activated potassium channel subunit alpha-1; assay: Inhibition of human KCNMA1 expressed in HEK293 cells assessed as reduction in amplitude current at 1 uM by inside-out configuration based patch clamp method; assay type: cell-based
[7] = target: T1, Calcium-activated potassium channel subunit alpha-1; assay: Inhibition of human KCNMA1 expressed in HEK293 cells assessed increase in time constant value of voltage activation at 1 uM by inside-out configuration based patch clamp method; assay type: cell-based
[8] = target: T1, Calcium-activated potassium channel subunit alpha-1; assay: Inhibition of human KCNMA1 expressed in HEK293 cells assessed as reduction in maximal conductance at 1 uM by whole cell configuration based patch clamp method
[9] = target: T1, Calcium-activated potassium channel subunit alpha-1; assay: Inhibition of human KCNMA1 expressed in HEK293 cells assessed as shift to depolarized potential at 1 uM by whole cell configuration based patch clamp method
[10] = target: T1, Calcium-activated potassium channel subunit alpha-1; assay: Reversible inhibition of human KCNMA1 expressed in HEK293 cells at 1 uM by whole cell configuration based patch clamp method
[11] = target: T1, Calcium-activated potassium channel subunit alpha-1; assay: Inhibition of human KCNMA1 expressed in HEK293 cells assessed effect on deactivation kinetics at 1 uM by inside-out configuration based patch clamp method; assay type: cell-based
[12] = target: T1, Calcium-activated potassium channel subunit alpha-1; assay: Inhibition of human KCNMA1 expressed in HEK293 cells assessed as reduction in open probability at 3 uM at -40 mV relative to control; assay type: cell-based
[13] = target: T1, Calcium-activated potassium channel subunit alpha-1; assay: Inhibition of human KCNMA1 expressed in HEK293 cells assessed as decrease in maximal conductance at 0.3 to 10 uM by inside-out configuration based patch clamp method; assay type: cell-based; conditions: dose 0.3-10 µM
[14] = target: T1, Calcium-activated potassium channel subunit alpha-1; assay: Inhibition of human KCNMA1 expressed in HEK293 cells assessed as decrease in open probability at 3 uM under single channel current; assay type: cell-based
[15] = target: T1, Calcium-activated potassium channel subunit alpha-1; assay: Inhibition of human KCNMA1 expressed in HEK293 cells assessed as reduction in unitary conductance at 3 uM (reference value: 242+/-10 pS); assay type: cell-based

T1 sequence (Q12791 whole entry): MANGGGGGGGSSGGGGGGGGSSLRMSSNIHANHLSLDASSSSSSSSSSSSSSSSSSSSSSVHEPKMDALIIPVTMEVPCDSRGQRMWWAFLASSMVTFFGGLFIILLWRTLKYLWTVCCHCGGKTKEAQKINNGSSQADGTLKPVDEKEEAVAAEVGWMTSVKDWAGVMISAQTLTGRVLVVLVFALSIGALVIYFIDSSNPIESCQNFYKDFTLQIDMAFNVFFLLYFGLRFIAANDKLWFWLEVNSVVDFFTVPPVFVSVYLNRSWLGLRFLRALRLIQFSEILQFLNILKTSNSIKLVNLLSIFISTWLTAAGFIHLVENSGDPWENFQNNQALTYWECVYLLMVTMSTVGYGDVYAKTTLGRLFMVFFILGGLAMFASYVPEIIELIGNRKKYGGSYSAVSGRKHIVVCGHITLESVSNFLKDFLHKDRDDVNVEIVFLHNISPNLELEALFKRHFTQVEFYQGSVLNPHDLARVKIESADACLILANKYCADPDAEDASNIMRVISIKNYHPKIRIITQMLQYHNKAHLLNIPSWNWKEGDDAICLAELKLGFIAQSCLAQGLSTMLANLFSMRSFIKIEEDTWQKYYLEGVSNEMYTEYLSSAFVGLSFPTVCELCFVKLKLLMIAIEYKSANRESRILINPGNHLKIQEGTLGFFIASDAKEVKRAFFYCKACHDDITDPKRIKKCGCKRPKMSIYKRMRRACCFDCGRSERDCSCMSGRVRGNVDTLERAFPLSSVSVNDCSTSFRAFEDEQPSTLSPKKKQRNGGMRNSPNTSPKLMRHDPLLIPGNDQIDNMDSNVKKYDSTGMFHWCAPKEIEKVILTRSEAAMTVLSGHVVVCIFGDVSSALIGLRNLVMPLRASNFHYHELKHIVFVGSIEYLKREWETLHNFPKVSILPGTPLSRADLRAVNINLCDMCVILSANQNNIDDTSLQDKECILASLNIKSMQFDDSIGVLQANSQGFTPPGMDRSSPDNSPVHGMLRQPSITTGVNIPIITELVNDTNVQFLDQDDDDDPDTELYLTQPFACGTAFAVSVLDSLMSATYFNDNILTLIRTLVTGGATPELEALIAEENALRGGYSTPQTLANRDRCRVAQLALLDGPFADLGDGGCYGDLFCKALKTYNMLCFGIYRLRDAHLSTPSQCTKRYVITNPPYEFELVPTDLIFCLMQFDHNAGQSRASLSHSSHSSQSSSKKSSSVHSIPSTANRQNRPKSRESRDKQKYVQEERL

In the case of `C=C(C)[C@@H]1CCC(C)=C[C@H]1c1c(O)cc(CCCCC)cc1O` [CANNABIDIOL], the inhibition [1] is reported as “Active”, the inhibition [2] is reported as “Active” and the IC50 [3] is reported as 0.28 µM. The inhibition [4] was 100%, the Time [5] was 9.11e-05 h and the inhibition [6] was “Active”. For the same compound, the inhibition [7] was “Active”, the inhibition [8] was “Active” and the inhibition [9] was “Active”. For the same compound, the inhibition [10] was “Active”, the inhibition [11] was “inactive” and the inhibition [12] was 87.4%. The inhibition [13] was “Active”, the inhibition [14] was “Active” and the Time [15] was 182 pS.
